Assay results from patent US8551526B2, “Preparation of drug particles using evaporation precipitation into aqueous solutions” (Board of Regents, The University of Texas System, priority 2000, dated 2013).
Several values for one entry are separate records, joined by “and”; a condition that tells them apart may be missing. Identical values can stand only once.

Experiments:
Type in all cases: physicochemical
[1] = BET surface area of danazol dry powders
Description: (§1) Two percent (2%) w/v danazol solution in dichloromethane was sprayed at a flow rate of 1 ml/min into 100 ml aqueous solution containing 1% w/v excipient or a excipient mixture at 1:1 w/w ratio, if two surfactants were used, to stabilize the drug particles. The temperatures of both heating jacket and water bath were 80° C. and the pressure drop was 3500-4000 psi. After 25 minutes spray, a suspension with drug to excipient ratio of 0.5 was recovered and the particle size of the danazol particles was measured with Malvern Mastersizer-S. The suspensions were centrifuged (BECKMAN, Model TJ-6, USA) at 3000 rpm for 30 mins. The supernatants were poured out and the precipitates were placed into a vacuum oven and dried at 40° C., and −30 in Hg for 3-4 hrs. The crystallinity of the dry powders was examined by x-ray diffraction (PW1720, PHILIPS). The surface area of the dry powders was measured with a high-speed surface area BET analyzer (NOVA 2000, Quantachrome Instruments, USA).

[2] = Contact angle of water on compressed dry powder tablet; settings: distilled water drop on compressed tablet
Description: […] was filled into a 0.7 cm diameter flat faced die and compressed with a Carver Laboratory Press (Model M, Fred S. Carver Inc, WIS, USA) at 1500 kgf into a tablet. A drop of […] distilled water was placed on the surface of the tablet and contact angle was measured from the tangential angle of the water drop with help of a camera (Panasonic WV-1410, Philippines).

[3] = X-ray diffraction of danazol dry powders
Description: as §1
X-ray diffraction was used to analyze the crystallinity of the dry powders. […] The a-peak heights of danazol in different excipient systems at 2θ=15° are listed in Table N. The reduction in crystallinity was less than 20% after correction for the presence of 10% w/w excipient. It was assumed that the danazol peak height was linear in concentration for a fixed weight. […]

[4] = Particle size distribution by static light scattering (Malvern Mastersizer-S) and redispersibility; settings: after centrifugation and vacuum drying
Excerpt: The organic danazol solution was fed by an HPLC pump through a 3 m long 1/16 in. o.d.×0.030 in. i.d. stainless steel coiled tube contained within a 1½″ OD×24″ long plastic water jacket (Alltech). Water was circulated through the jacket with a JULABO MP temperature controller. The organic solution was atomized through an unheated insulated adjustable restrictor (5 mm dia.×136 mm long, ISCO, USA) into hot water. Atomization was achieved by adjusting the nozzle valve manually to maintain a pressure drop to about 3500 psi. The aqueous stabilizing solution was contained in a 250 ml plastic submerged in a temperature-controlled water bath. The nozzle was submerged approximately 10 cm under the surface of the aqueous solution. […] After spraying for a required time to produce the desired drug/excipient ratio, the suspension was recovered and analyzed within 30 mins to determine the particle size by light scattering with a Malvern Mastersizer-S (Malvern Instruments Ltd., U. K.).
Two percent (2%) w/v danazol solution in dichloromethane was sprayed at a flow rate of 1 ml/min into 100 ml aqueous solution containing 1% w/v excipient or a excipient mixture at 1:1 w/w ratio, if two surfactants were used, to stabilize the drug particles. […] The surface area of the dry powders was measured with a high-speed surface area BET analyzer (NOVA 2000, Quantachrome Instruments, USA). […]

Surface Area of the dry powder [1]: 0.52 m^2/g
Contact angle of dry powder after centrifugation and drying [2]: 61.5 ° and 61.0 °
Peak height of danazol x-ray diffraction at 2θ = 15° [3]: 3182 counts
D (v, 0.5) redispersed dry powders ([4]; cell marked (30s)): 21.07 (30s) μm
D (v, 0.5) redispersed dry powders w/o ultrasonic ([4]; redispersed in distilled water): 29.63 μm
Structure (SMILES): C#C[C@]1(O)CC[C@H]2[C@@H]3CCC4=Cc5oncc5C[C@]4(C)[C@H]3CC[C@@]21C [Bulk danazol, danazol]
